# Experimental data published in ChEMBL document CHEMBL1125188, “Synthesis and evaluation of stilbene and dihydrostilbene derivatives as potential anticancer agents that inhibit tubulin polymerization” (J Med Chem, 1991).
# pEC50: −log10 of the molar value.
# Key:
# HT-29 = test: Cytotoxic concentration required to inhibit 50% cell growth in HT-29 colon adenocarcinoma cell lines; assay type: functional; conditions: Homo sapiens, read-out: ED50 (the source's name)
# A549 = test: Cytotoxic concentration required to inhibit 50% cell growth in A-549 lung carcinoma cell lines; assay type: functional; conditions: Homo sapiens, read-out: ED50 (the source's name)
# Tubulin = Tubulin (Bos taurus, UniProt Q6B856+Q862L2+Q862F3); test: Ability to inhibit Tubulin polymerization in Bovine brain; assay type: functional, tissue-based
# MLM = test: Cytotoxic concentration required to inhibit 50% cell growth in MLM melanoma cell lines; assay type: functional; conditions: Homo sapiens, read-out: ED50 (the source's name)
# MCF7 = test: Cytotoxic concentration required to inhibit 50% cell growth in MCF-7 breast carcinoma cell lines; assay type: functional; conditions: Homo sapiens, read-out: ED50 (the source's name)
# SK-MEL-5 = test: Cytotoxic concentration required to inhibit 50% cell growth in SKMEL-5 melanoma cell lines; assay type: functional; conditions: Homo sapiens, read-out: ED50 (the source's name)
IC50 (Tubulin),Structure (SMILES),pEC50 (HT-29),pEC50 (A549),pEC50 (MLM),pEC50 (MCF7),pEC50 (SK-MEL-5)
29000 nM,COc1ccc(NCc2cc(OC)cc(OC)c2)cc1,4.75,5.24,< 4.60,5.22,5.62
23000 nM,COc1ccc(NCc2cc(OC)c(OC)c(OC)c2)cc1,9.00,8.72,8.80,8.62,9.15
3300 nM,COc1ccc(CCc2cc(OC)c(OC)c(OC)c2)cc1O,7.09,8.00,8.00,6.48,8.68
36000 nM,COc1cc(/C=C\c2ccccc2)cc(OC)c1OC,7.08,6.77,< 4.60,6.60,6.92
> 50000 nM,COc1cc(/C=C/c2ccc(N(C)C)cc2)cc(OC)c1OC,8.16,8.21,7.90,7.09,8.34
7900 nM,COc1ccc(CCc2cc(OC)c(OC)c(OC)c2)cc1,9.60,9.74,9.74,9.80,9.85

Structure (SMILES),IC50 (Tubulin),pEC50 (HT-29),pEC50 (A549),pEC50 (MLM),pEC50 (MCF7),pEC50 (SK-MEL-5)
COc1cc(/C=C\c2ccc(Cl)cc2)cc(OC)c1OC,4800 nM,7.30,7.10,6.77,6.74,8.00
COc1ccc(/C=C/c2cc(OC)c(OC)c(OC)c2)cc1,> 50000 nM,5.74,5.93,5.68,5.98,6.09
COc1cc(/C=C\c2ccc(Br)cc2)cc(OC)c1OC,3100 nM,8.09,7.96,7.85,7.80,8.17
COc1cc(/C=C\c2ccc(OC(C)=O)cc2)cc(OC)c1OC,29000 nM,5.22,5.77,5.20,5.52,5.22
